Experimental data reported in PMC3170264 (Retrovirology, 2011).
Residue numbers refer to the chain shown, from its start.

Columns and labels:
wild-type HIV-2 = conditions: phenotypic susceptibility similar to that of HIV-1; cited from earlier work
HIV-2 IN G140S = target: T1, HIV-2 IN G140S (Human immunodeficiency virus type 2 subtype B, UniProt Q89928, G1308S/I1218V/I1301V/I1372V/M1455R/N1185G/N1438H/R1202K/R1392Q/T1348V/T1383A/V1460M); experiment: strand transfer inhibition, site-directed mutant in N1 background; format: biochemical; conditions: 200 nM IN
T1 construct: His-tag (pET-15b) (N); made in house; host or cells: Escherichia coli BL21-CodonPlus (DE3)-RIPL
T1 sequence (Q89928 with tags, fused parts or gaps N1185G/R1202K/I1218V/I1301V/G1308S/T1348V/I1372V/T1383A/R1392Q/N1438H/M1455R/V1460M): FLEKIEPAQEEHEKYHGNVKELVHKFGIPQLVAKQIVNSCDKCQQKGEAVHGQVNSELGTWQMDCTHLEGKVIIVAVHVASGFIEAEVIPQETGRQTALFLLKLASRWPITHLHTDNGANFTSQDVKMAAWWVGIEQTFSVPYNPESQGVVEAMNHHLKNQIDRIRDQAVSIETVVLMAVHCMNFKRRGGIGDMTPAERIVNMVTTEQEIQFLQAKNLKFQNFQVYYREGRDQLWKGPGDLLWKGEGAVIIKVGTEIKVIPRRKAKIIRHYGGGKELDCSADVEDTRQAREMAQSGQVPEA
Description: (§1) Activity is expressed as a % of control without drug. Experiments were performed two times.
(§2) Primer 1: N1, N2, T1, T2, 5'-[…]-3'; N3, 5'-[…] […]-3'; T3-T7, 5'-[…]-3'. Primers 2: N1, 5'-[…]-3'; N2, 5'-[…] […]-3'; N3, 5'-[…] C-3'; T1, T2, 5'-[…]-3'; T3-T7, 5'-GGATC […] -3'.
(§3) The HIV-2 ODN substrate sequences were: UA: 5'-[…]-3'; U5B: 5'-[…]-3'; U5B-2: 5'-[…] […]-3'.

HIV-2 IN E92Q/Y143C = target: T2, HIV-2 IN E92Q/Y143C (Human immunodeficiency virus type 2 subtype B, UniProt Q89928, E1260Q/I1218V/I1301V/I1372V/M1455R/N1185G/N1438H/R1202K/R1392Q/T1348V/T1383A/V1460M/Y1311C); experiment: as above; format: biochemical; conditions: E92Q/Y143C double mutant in N1 background; 200 nM IN
T2 construct: His-tag (pET-15b) (N); made in house; host or cells: Escherichia coli BL21-CodonPlus (DE3)-RIPL
T2 sequence (Q89928 with tags, fused parts or gaps N1185G/R1202K/I1218V/E1260Q/I1301V/Y1311C/T1348V/I1372V/T1383A/R1392Q/N1438H/M1455R/V1460M): T1 sequence (Q89928 with tags, fused parts or gaps N1185G/R1202K/I1218V/I1301V/G1308S/T1348V/I1372V/T1383A/R1392Q/N1438H/M1455R/V1460M) with E92Q, S140G, Y143C
Description: as §1, §2, §3

[1] = target: T3, HIV-2 IN G140S/Q148R (T3) (Human immunodeficiency virus type 2 subtype A, UniProt P04584, A1212T/E1378D/G1311S/I1304V/I1351V/I1372T/M1463V/Q1319R/R1205K/R1395Q/S1188G/S1210T/T1231V/V1190I); experiment: strand transfer inhibition, IN from clinical isolate T3; format: biochemical; conditions: clinical isolate T3, G140S/Q148R double mutant; IC50 not reached at concentrations up to 1 μM
T3 construct: His-tag (pET-15b) (N); made in house; host or cells: Escherichia coli BL21-CodonPlus (DE3)-RIPL
T3 sequence (P04584 1172-1464 S1188G/V1190I/R1205K/S1210T/A1212T/T1231V/I1304V/G1311S/Q1319R/I1351V/I1372T/E1378D/R1395Q/M1463V): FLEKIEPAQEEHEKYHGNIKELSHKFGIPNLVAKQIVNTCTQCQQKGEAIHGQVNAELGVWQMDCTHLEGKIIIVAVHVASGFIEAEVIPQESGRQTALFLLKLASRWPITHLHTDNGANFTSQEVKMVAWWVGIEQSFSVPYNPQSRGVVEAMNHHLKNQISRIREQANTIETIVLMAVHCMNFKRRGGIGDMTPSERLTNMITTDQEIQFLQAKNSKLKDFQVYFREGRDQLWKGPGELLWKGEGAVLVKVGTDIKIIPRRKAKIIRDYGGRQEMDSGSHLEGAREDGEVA
Description: as §1, §3

HIV-2 IN (N1 to N3) = target: T4, HIV-2 IN (N1 to N3) (Human immunodeficiency virus type 2 subtype B, UniProt Q89928, I1218V/I1301V/I1372V/M1455R/N1185G/N1438H/R1202K/R1392Q/T1348V/T1383A/V1460M); experiment: 3'-processing inhibition, INs from clinical isolates N1 to N3; format: biochemical; conditions: at concentrations up to 1 μM; data not shown
T4 construct: His-tag (pET-15b) (N); made in house; host or cells: Escherichia coli BL21-CodonPlus (DE3)-RIPL
T4 sequence (Q89928 1169-1464 N1185G/R1202K/I1218V/I1301V/T1348V/I1372V/T1383A/R1392Q/N1438H/M1455R/V1460M limits assumed): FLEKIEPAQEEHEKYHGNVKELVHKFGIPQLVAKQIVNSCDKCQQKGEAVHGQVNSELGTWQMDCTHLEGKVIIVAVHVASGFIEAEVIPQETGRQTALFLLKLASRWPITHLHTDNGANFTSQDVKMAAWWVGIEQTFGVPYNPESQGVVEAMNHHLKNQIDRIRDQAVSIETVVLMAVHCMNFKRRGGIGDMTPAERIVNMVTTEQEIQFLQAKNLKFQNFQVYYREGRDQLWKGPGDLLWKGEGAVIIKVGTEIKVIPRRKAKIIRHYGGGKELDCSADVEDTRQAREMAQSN
Description: The activity of wild-type and mutated INs was determined in vitro, as previously described. Briefly, oligonucleotides (ODN) mimicking the end of the U5 long terminal repeat of the viral genome were radiolabeled with T4 polynucleotide kinase (Biolabs, Ipswich, USA) and [γ-^32P] ATP (3,000 Ci/mmol) (Amersham, GE Healthcare, USA), then purified on a Sephadex G-10 column (GE Healthcare, USA). Double-stranded ODNs were obtained by mixing equimolar amounts of complementary strands in the presence of 100 mM NaCl.

Cc1nnc(C(=O)NC(C)(C)c2nc(C(=O)NCc3ccc(F)cc3)c(O)c(=O)n2C)o1 [RAL, raltegravir]
activity against wild-type HIV-2 (wild-type HIV-2): active
susceptibility to RAL, strand transfer (HIV-2 IN G140S): as susceptible to RAL as the wild-type reference N1 enzyme
IC50 (HIV-2 IN E92Q/Y143C): 370 nM
IC50 [1]: > 1000 nM
effect on 3' processing in vitro (HIV-2 IN (N1 to N3)): no significant effect
